Patent publication US7759392B2, “Pharmaceutical compounds” (Nicox S.A., priority 1999, dated 2010)
Where two headings read alike, the source gives them in different places.

Columns and labels:
gastrointestinal mucosa [1] = conditions: male, Wistar, rat, in vivo, 6 h
Protocol: Gastric lesions induced by administration of the compounds of the invention in the confront of the corresponding drug precursor.
The animals have been sacrificed 6 hours after the administration. The gastrointestinal mucosa has been removed and inspected. The incidence of the gastrointestinal damage has been evaluated as described in experiment F1.

gastrointestinal mucosa [2] = conditions: rat, in vivo, po
gastrointestinal mucosa [3] = conditions: rat, in vivo
Protocol: The animals (rats) are distributed in the following groups (no. 10 animals for group):
• 1° group: treatment: only carrier (aqueous suspension 1% w/v of carboxymethylcellulose, dose: 5 ml/Kg when the drug is administered by os, or a physiologic solution when parenterally administered, i.e. by subcutaneous, intraperitoneal, intravenous or intermuscular route), • 2° group: treatment: carrier as above defined+NEM, B) Groups Treated with the Drug: • group I: treatment: carrier+drug, • group II: treatment: carrier+drug+NEM.
The administration routes are those known for the drug, and can be the oral or subcutaneous, intraperitoneal, intravenous or intramuscular route.
The animals are sacrificed after 24 hours and then one proceeds to the evaluation of the damage to the gastrointestinal mucosa.
Test 1—experimental model in vivo with N-ethylmaleimide (NEM): study of the gastric tolerability of some drugs screened as precursors of the compounds of the invention.
The animals (rats, weight about 200 g) are distributed in the following groups (No. 10 animals for group):
• 1° group: treatment: only carrier (aqueous suspension 1% w/v of carboxymethylcellulose, dose: 5 ml/Kg when the drug is administered by os, physiologic solution when by parenteral route), • 2° group: treatment: carrier+NEM, B) Groups Administered with Each Drug: • group I: treatment: carrier+drug, • group II: treatment: carrier+drug+NEM.
The drug is administered one hour later, in suspension in the carrier. Animals are sacrificed after 24 hours and evaluation of the damage to the gastrointestinal mucosa is made by counting the number of rats, inside each group, with lesions to the stomach at a visual inspection. The total number of said rats is then divided by the total number of rats of the group and multiplied by 100.

[4] = test system: human endothelial cells of the umbilical vein; assay: Test 2 (CIP): apoptosis (DNA fragmentation) induced by cumene hydroperoxide in endothelial cells; format: cell-based; conditions: drug 10^-4 M; CIP 5 mM
Protocol: Test 2 (CIP): Protection parameter of endothelial cell against the oxidative stress induced by cumene hydroperoxide (CIP).
Human endothelial cells of the umbilical vein are prepared according to an usual standard procedure. Fresh umbilical veins are filled with a 0.1% by weight collagenase solution and incubated at 37° C. for 5 minutes.
The cells are collected from the perfusate by centrifugation and harvested in culture flasks T-75, pretreated with human fibronectin. The cells are then harvested in the same medium, further added with 10 ng/ml of bovine hypothalamic growth factor. When the cells of the primary cell culture (i.e. that directly obtained from ex-vivo) form a single layer of confluent cells (about 8,000,000 cells/flask), the culture is stopped and the layers washed and trypsinized. The cellular suspensions are transferred into the wells of a cell culture plate having 24 wells, half of which is then additioned with the same culture medium containing the drug at a 10^−4M concentration, and harvested in a thermostat at 37° C. at a constant moisture. Only the cells coming from said first sub-cultures are used for the experiments with cumene hydroperoxide (CIP).
Before starting the test, the cellular culture medium is removed and the cellular layers are carefully washed with a physiologic solution at a temperature of 37° C. The wells of the culture plate are then incubated for one hour with CIP at a 5 mM concentration in the culture medium. […] 5 replicates for each sample are carried out.
Human endothelial cells of the umbilical vein are prepared according to a standard method. Fresh umbilical veins are filled with a collagenase solution 0.1% by weight and incubated at 37° C. for 5 minutes.
The cells are collected from the perfusate by centrifugation at 800 rpm and harvested in culture flasks T-75, pretreated with human fibronectin. Cells are then harvested in the same medium, added with bovine hypothalamic growth factor (100 ng/ml). When the cells of the primary cell culture (the cells directly removed from ex-vivo umbilical vein) form a single layer of confluent cells (about 8,000,000 cells/flask), harvesting is stopped and the layers are washed and trypsinized. The cellular suspensions are transferred into wells of a culture plate having 24 wells, half of said wells being added with the same culture medium containing the drug at a 10^−4M concentration, and harvested in a thermostat at 37° C. at a constant moisture (90%), CO2=5%. When the drug is not soluble in the culture medium, it is formerly dissolved in a small amount of dimethylsulphoxide. The maximum amount of dimethylsulphoxide which can be added to the culture medium is 0.5%. Only the cells coming from these first subcultures are used for the tests with cumene hydroperoxide (CIP).
Before starting the test, the cellular culture medium is removed and the cellular layers are carefully washed with a standard physiologic solution buffered with phosphate 0.1 M pH 7.0, at the temperature of 37° C. The content of each well is then incubated for one hour with a CIP suspension in the culture medium at a 5 mM concentration. Evaluation of the cellular damage (apoptosis) is carried out by determining the percent variation of the DNA fragmentation in the cultures containing the drug+CIP with respect to the controls treated with CIP only. […] The fluorescence of each sample was determined on 5 replicates. Statistic evaluation has been made with t Student test (p<0.01).

[5] = test system: human endothelial cells of the umbilical vein; assay: Experiment F6: apoptosis (DNA fragmentation) induced in endothelial cells by hydrogen peroxide; format: cell-based; conditions: Endothelial cell, products 100 mmoles/l, hydrogen peroxide 200 mmoles/l, 18 hours, read-out: Apoptosis % (respect to the controls treated only with CIP)
From the text: It has been Evaluated the Activity of Some of the Compounds Object of the Present Invention and of the Corresponding Precursor Drugs in Inhibiting DNA Degradation (Apoptosis) in Endothelial Cells Exposed to the Action of Hydrogen Peroxide (HP)
Hydrogen peroxide is a mild oxidant and is considered as an essential mediating agent in pathologies associated with oxidative stress (B. Halliwell, J. Gutteridge “Free Radicals in Biology and Medicine”, page 416, 1993). Therefore the pharmacological activity of compounds to be used under oxidative stress conditions is evaluated through their capability of neutralizing the cytolesive effects of the hydrogen peroxide (B. Halliwell, J. Gutteridge “Free Radicals in Biology and Medicine”, page 416, 1993).
The method described by Herman et Al. (Herman C., Zeiner M. A., Dimmeler S., Arterioscler. Thromb. Vasc. Biol. 17 (12), 3588-82, 1997).
Human endothelial cells of the umbilical vein are prepared according to a standard method. Fresh umbilical veins, just removed, are filled with a solution of collagenase at 0.1% and incubated at 37° C. for 5 minutes.
Subsequently the veins are perfused with medium M 199 (GIBCO, Grand Island, N.Y.) pH 7.4 containing 20% of human serum. The cells are collected from the perfusate by centrifugation at 800 rpm and harvested in culture flasks T-75, pretreated with human fibronectin. […]

| SMILES | Gastropathy % incidence (gastrointestinal mucosa [1]) [%] | Gastropathy % incidence (gastrointestinal mucosa [2]) [%] | Gastro-enteropathy (% incidence) without NEM (gastrointestinal mucosa [3]) [%] | gastrointestinal damages / gastric lesions in rats treated with NEM + drug (in words) (gastrointestinal mucosa [3]) | inhibition of apoptosis induced by CIP (in words, p<0.01) [4] | activity at 100000 µM [5] [%] |
| --- | --- | --- | --- | --- | --- | --- |
| CN(CCOC(=O)Cc1ccccc1Nc1c(Cl)cccc1Cl)CCO[N+](=O)[O-] [Example 14] | 0 | 20 | – | – | – | – |
| Nc1c2c(nc3ccccc13)CCCC2 [Tacrine, tacrine] | 60 | – | 0 | showed gastric lesions | do not significantly inhibit apoptosis | 8 |
